Results on 19 molecules are retold here after patent US11319324B2, “Pyrazolo-pyrrolo-pyrimidine-dione derivatives as P2X3 inhibitors” (Bayer Aktiengesellschaft, priority 2017, dated 2022).

Holding throughout (assay type): cell-based
Assay [1] has as its target T1, human P2X3 receptor (Homo sapiens, UniProt P56373).
T1 sequence (P56373 1-397): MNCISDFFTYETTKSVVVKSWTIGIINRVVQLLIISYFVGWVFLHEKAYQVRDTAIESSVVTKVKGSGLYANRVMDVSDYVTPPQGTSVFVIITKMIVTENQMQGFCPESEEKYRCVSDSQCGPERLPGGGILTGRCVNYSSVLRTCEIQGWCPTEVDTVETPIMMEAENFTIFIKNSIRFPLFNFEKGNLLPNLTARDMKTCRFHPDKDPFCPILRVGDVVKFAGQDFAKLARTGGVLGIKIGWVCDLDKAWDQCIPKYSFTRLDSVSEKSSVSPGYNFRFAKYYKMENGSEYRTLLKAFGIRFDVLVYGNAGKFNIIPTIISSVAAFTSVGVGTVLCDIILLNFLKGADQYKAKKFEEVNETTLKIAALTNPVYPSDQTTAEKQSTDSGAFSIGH
Description: Intracellular calcium measurement, antagonist activity at human P2X3 receptors (hP2X3 1321N1), Fluo8. Conditions: column 3); 1321N1 cells, human P2X3, Fluo8, agonist ATP at EC50. On the set-up: expressed in transfected cells; host or cells: human astrocytoma 1321N1 (1312N1 [sic]). As to the method:
3) And 4) Intracellular Calcium Measurement to Compare Antagonist Activity at Human P2X3 Receptors (hP2X3 1321N1) and at Human P2X2/3 Receptors (hP2X23 1321N1)
The comparison of antagonistic activity at the P2X3 versus the P2X2/3 receptor of the compounds of the invention were performed by use of recombinant cell lines. These cell lines derived originally from the human astrocytoma cell line […] (Macintyre E H, Pontén J, Vatter A E. Acta Pathol Microbiol Scand A. 1972; 80(2):267-83). The cell lines are stably transfected with the human P2X3 receptor forming homotrimeric P2X3 receptors or are co-transfected with P2X2 and P2X3 forming heterotrimeric P2X2/3 receptors. Stimulation of the receptors with the agonist ATP leads to a conformational change of the receptors and influx of extracellular calcium ions through the open ion channel. The cytoplasmatic calcium transient is detected via the calcium sensitive dye Fluo8. The strength of Fluo8 fluorescence signal corresponds to the level of receptor activation. An inhibitor would decrease the signal depending on its potency and concentration. Fluorescence was measured by use of a suitable fluorescence reader.
On the day before the assay, the cells were plated in culture medium (DMEM high glucose, 10% FCS, 1% MEM non-essential amino acids, 4 mM Glutamax) in 384-well poly-D-lysine coated microtiter plates and kept in a cell incubator (96% humidity, 5% v/v CO2, 37° C.). On the day of the assay medium was exchanged by Fluo8 containing buffer and incubated for 60 minutes. Test compounds were added at various concentrations and plates were incubated for 10 minutes. In the fluorescence reader a 3 seconds baseline measurement was performed and the agonist ATP was applied at EC50 concentration of the respective receptor during constant fluorescence measurement for 120 seconds.
On the technique in general: A change in cytosolic calcium serves as a functional read-out for many receptors and channels.

Another assay addresses T2, human P2X2/3 receptors (Homo sapiens, UniProt P56373+Q9UBL9).
T2 construct: expressed in transfected cells; host or cells: human astrocytoma 1321N1 (1312N1 [sic])
T2 sequence (P56373 1-397): T1 sequence (P56373 1-397)
T2 sequence (Q9UBL9 1-471): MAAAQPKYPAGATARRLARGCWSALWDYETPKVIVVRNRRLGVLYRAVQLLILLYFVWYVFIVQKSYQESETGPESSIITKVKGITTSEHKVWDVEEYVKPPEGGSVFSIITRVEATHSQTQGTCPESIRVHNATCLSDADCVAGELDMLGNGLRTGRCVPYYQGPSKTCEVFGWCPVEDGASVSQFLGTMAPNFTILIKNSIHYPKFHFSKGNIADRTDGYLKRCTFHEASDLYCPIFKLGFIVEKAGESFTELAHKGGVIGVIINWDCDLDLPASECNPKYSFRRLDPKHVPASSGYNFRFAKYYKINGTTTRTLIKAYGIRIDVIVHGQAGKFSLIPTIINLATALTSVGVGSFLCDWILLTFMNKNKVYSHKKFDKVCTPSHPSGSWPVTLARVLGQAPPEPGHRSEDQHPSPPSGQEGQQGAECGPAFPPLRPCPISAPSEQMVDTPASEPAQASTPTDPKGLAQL
Put plainly: Intracellular calcium measurement, antagonist activity at human P2X2/3 receptors (hP2X23 1321N1), Fluo8. To be noted: for IC50: column 4); 1321N1 cells, human P2X2/3, Fluo8, agonist ATP at EC50; read-out: 4) hP2X2/3 IC50 [nM] (1321N1); for hP2X23/hP2X3* Selectivity (1321N1): ratio of column 4) hP2X2/3 to column 3) hP2X3, 1321N1. An outline of the steps: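 Inhibition of ATP-triggered Ca2+ transients is measured in 1321N1 cells expressing P2X3 homotrimers or P2X2/3 heterotrimers.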

Assay [2] has as its target T1, human P2X3 receptor. Put plainly: Intracellular calcium measurement to assess antagonist activity at human P2X3 receptors (hP2X3 CHO), photina luminescence. Conditions: column 2), CHO cells, agonist α,β-methylene-ATP at EC50. Also noted: expressed in transfected cells; host or cells: Chinese hamster ovary (CHO) cells. A digest of the protocol: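 CHO cells stably expressing human P2X3 and mitochondrial photina, plated the day before at 30 °C, then loaded 3 h at 37 °C in 2 mM Ca-tyrode buffer with 5 μg/ml coelenterazine. Agonist-evoked calcium luminescence read immediately; inhibition seen as signal decrease.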

As for `CCOC(=O)c1cc2n(CC(=O)Nc3ccc(F)cn3)c3c(c(=O)n2n1)CN(C(C)C)C3=O` [Example 70, ethyl 4-{2-[(5-fluoropyridin-2-yl)amino]-2-oxoethyl}-5,8-dioxo-6-(propan-2-yl)-5,6,7,8-tetrahydro-4H-pyrazolo[1,5-a]pyrrolo[3,4-d]pyrimidine-2-carboxylate], the IC50 at human P2X3 receptor [1] came out at 36 nM; on human P2X2/3 receptors, 1800 nM; at human P2X3 receptor [2], 16 nM. Moreover, the “hP2X23/hP2X3* Selectivity (1321N1)” value on human P2X2/3 receptors is recorded as 51.
The like results for `CC(C)N1Cc2c(n(CC(=O)Nc3ccc(F)cn3)c3cc(CO)nn3c2=O)C1=O` [Example 72] were, in that order, 235 nM, greater than 32000 nM, 120 nM and greater than 136.
The like results for `CCc1cc2n(CC(=O)Nc3ccc(F)cn3)c3c(c(=O)n2n1)CN(C[C@H]1CCCO1)C3=O` [Example 73, 2-{2-ethyl-5,8-dioxo-6-[(2R)-tetrahydrofuran-2-ylmethyl]-5,6,7,8-tetrahydro-4H-pyrazolo[1,5-a]pyrrolo[3,4-d]pyrimidin-4-yl}-N-(5-fluoropyridin-2-yl)acetamide] were, in that order, 104 nM, 9500 nM, 122 nM and 91.
For the molecule `CCc1cc2n(CC(=O)Nc3ccc(F)cn3)c3c(c(=O)n2n1)CN(CC1CCOC1)C3=O` (stereo not shown) [Example 74], the results for the IC50 on human P2X3 receptor [1], on human P2X2/3 receptors and at human P2X3 receptor [2] were 437 nM, greater than 32000 nM and 570 nM, respectively. Also, the “hP2X23/hP2X3* Selectivity (1321N1)” value on human P2X2/3 receptors is reported as greater than 73.
Take `CC(C)N1Cc2c(n(CC(=O)Nc3ccc(F)cn3)c3cc(Br)nn3c2=O)C1=O` [Example 75, 2-[2-bromo-5,8-dioxo-6-(propan-2-yl)-5,6,7,8-tetrahydro-4H-pyrazolo[1,5-a]pyrrolo[3,4-d]pyrimidin-4-yl]-N-(5-fluoropyridin-2-yl)acetamide]: the IC50 is 89 nM at human P2X3 receptor [1], 4400 nM at human P2X2/3 receptors and 29 nM at human P2X3 receptor [2]. On human P2X2/3 receptors, the “hP2X23/hP2X3* Selectivity (1321N1)” value came out at 50.
As for `CCc1cc2n(CC(=O)Nc3ccc(F)cn3)c3c(c(=O)n2n1)CN(C1CCN(C(=O)OC(C)(C)C)CC1)C3=O` [Example 76], the IC50 at human P2X3 receptor [1] was 1670 nM; at human P2X2/3 receptors, greater than 21500 nM; on human P2X3 receptor [2] it was 470 nM. The “hP2X23/hP2X3* Selectivity (1321N1)” value at human P2X2/3 receptors is recorded as greater than 13.
Consider `CCc1cc2n(CC(=O)Nc3ccc(F)cn3)c3c(c(=O)n2n1)CN(C1CCN(C(=O)OC(C)(C)C)C1)C3=O` (stereo not shown) [Example 78], for which the IC50 worked out at 62 nM on human P2X3 receptor [1], 6100 nM at human P2X2/3 receptors and 21 nM at human P2X3 receptor [2]. Further, the “hP2X23/hP2X3* Selectivity (1321N1)” value at human P2X2/3 receptors came out at 98.
The like results for `CC(C)N1Cc2c(n(CC(=O)Nc3ccc(F)cn3)c3cc(C(=O)NC4CC4)nn3c2=O)C1=O` [Example 79] were, in that order, 61 nM, 4800 nM, 94 nM and 79.
The like results for `CCc1cc2n(CC(=O)Nc3ccc(F)cn3)c3c(c(=O)n2n1)CN(CC1CCN(C(=O)OC(C)(C)C)C1)C3=O` (stereo not shown) [Example 80] were, in that order, 63 nM, 1950 nM, 32 nM and 31.
The like results for `CCc1cc2n(CC(=O)Nc3ccc(F)cn3)c3c(c(=O)n2n1)CN(CC1CCCN1C(=O)OC(C)(C)C)C3=O` (stereo not shown) [Example 81] were, in that order, 42 nM, 2600 nM, 103 nM and 61.
For the molecule `CC(C)Cc1cc2n(CC(=O)Nc3ccc(F)cn3)c3c(c(=O)n2n1)CN(C(C)C)C3=O` [Example 82], the IC50 stood at 8 nM at human P2X3 receptor [1], 1870 nM on human P2X2/3 receptors and 6 nM at human P2X3 receptor [2]. Further, at human P2X2/3 receptors, the “hP2X23/hP2X3* Selectivity (1321N1)” value worked out at 239.
`CCc1cc2n(CC(=O)Nc3ccc(F)cn3)c3c(c(=O)n2n1)CN(CC1CCOCC1)C3=O` [Example 83]: the IC50 on human P2X3 receptor [1] is 665 nM; at human P2X2/3 receptors, greater than 32000 nM; on human P2X3 receptor [2] it was 370 nM. Further, the “hP2X23/hP2X3* Selectivity (1321N1)” value at human P2X2/3 receptors is listed as greater than 48.
Regarding `CC(C)N1Cc2c(n(CC(=O)Nc3ccc(F)cn3)c3cc(C4CCCCC4)nn3c2=O)C1=O` [Example 85], the IC50 on human P2X3 receptor [1] amounted to 6 nM; on human P2X2/3 receptors it was 1950 nM; on human P2X3 receptor [2] it was 4 nM. Further, the “hP2X23/hP2X3* Selectivity (1321N1)” value on human P2X2/3 receptors is 328.
The like results for `CCc1cc2n(CC(=O)Nc3ccc(F)cn3)c3c(c(=O)n2n1)CN(C[C@H]1CN(C(=O)OC(C)(C)C)CCO1)C3=O` [Example 86, tert-butyl(2S)-2-{[2-ethyl-4-{2-[(5-fluoropyridin-2-yl)amino]-2-oxoethyl}-5,8-dioxo-5,8-dihydro-4H-pyrazolo[1,5-a]pyrrolo[3,4-d]pyrimidin-6(7H)-yl]methyl}morpholine-4-carboxylate] were, in that order, 140 nM, 2350 nM, 70 nM and 17.
The like results for `CC(C)N1Cc2c(n(CC(=O)Nc3ccc(F)cn3)c3cc(C(C)(C)O)nn3c2=O)C1=O` [Example 88] were, in that order, 56 nM, greater than 23500 nM, 115 nM and greater than 423.
For `CCc1cc2n(CC(=O)Nc3ccc(F)cn3)c3c(c(=O)n2n1)CN(CC1CCN(C(=O)OC(C)(C)C)CC1)C3=O` [Example 89], the IC50 at human P2X3 receptor [1] is 135 nM; on human P2X2/3 receptors, 6550 nM; at human P2X3 receptor [2], 64 nM. Also, the “hP2X23/hP2X3* Selectivity (1321N1)” value on human P2X2/3 receptors stood at 49.
With `CCc1cc2n(CC(=O)Nc3ccc(F)cn3)c3c(c(=O)n2n1)CN(C[C@@H]1CN(C(=O)OC(C)(C)C)CCO1)C3=O` [Example 90, Tert-butyl(2R)-2-{[2-ethyl-4-{2-[(5-fluoropyridin-2-yl)amino]-2-oxoethyl}-5,8-dioxo-5,8-dihydro-4H-pyrazolo[1,5-a]pyrrolo[3,4-d]pyrimidin-6(7H)-yl]methyl}morpholine-4-carboxylate], the values for the IC50 at human P2X3 receptor [1], at human P2X2/3 receptors and at human P2X3 receptor [2] were 130 nM, 3450 nM and 94 nM, respectively. In addition, at human P2X2/3 receptors, the “hP2X23/hP2X3* Selectivity (1321N1)” value is reported as 27.
The like results for `CC(C)N1Cc2c(n(CC(=O)Nc3ccc(F)cn3)c3cc(NC(=O)OC(C)(C)C)nn3c2=O)C1=O` [Example 91] were, in that order, 33 nM, 1900 nM, 27 nM and 58.
For the molecule `O=C(Cn1c2c(c(=O)n3nc(C4CCOCC4)cc13)CN(C1CCCC1)C2=O)Nc1ccc(F)cn1` [Example 92], the IC50 amounted to 26 nM at human P2X3 receptor [1], 5050 nM on human P2X2/3 receptors and 64 nM at human P2X3 receptor [2]. Also, the “hP2X23/hP2X3* Selectivity (1321N1)” value at human P2X2/3 receptors was 192.
